US20210255168A1, “A METHOD OF PRECISION CANCER THERAPY” (KING FAISAL SPECIALIST HOSPITAL & RESEARCH CENTRE, priority 2018, published 2021)

What was measured:
[1] = test system: ARE-containing mRNAs (uPA, IL-8, SLC2A1, uPAR, CXCR4, MMP13, PDL1, HuR) in MDA-MB-231 cells; experiment: RT-qPCR of ARE-containing cancer gene mRNAs; assay type: cell-based; settings: MDA-MB-231, 330 nM, 24 hr, vs DMSO
Description: Examples of the effect of several protein kinase inhibitors that were the outcome of the screen assay on one cancer gene, uPA, and a pro-inflammatory cytokine, IL-8 is given in FIG. 3.
These include IL-8, solute carrier family 2 member 1 (SLC2A1), uPA, uPAR, CXCR4, MMP13, PDL1, and HuR. The MDA-MB-231 cells were treated with 330 nM volasertib or DMSO for 24 hr, then quantitative RT-qPCR was performed in using FAM-labelled TaqMan probe of the above genes and normalized to GADPH (FIG. 11).
Cells were cultured in six-well plates and either treated with DMSO or drugs for 24 h. Total RNA was then extracted using Trizol reagent (TRI Reagent, Sigma-Aldrich, St Louis, Mo.). The cells were lysed directly on the culture dish by adding 1 ml of the TRI Reagent per 10 cm^2 surface area. […] The quantitative RT-QPCR was performed in multiplex in the Chroma 4 DNA Engine cycler (BioRad, Hercules, Calif., USA) using FAM-labelled TaqMan probes (Applied Biosystems, Foster City, Calif., USA) for TTP (ZFP36), HuR (ELAVL1), uPA (PLAU)-CXCR4, MMP-1, MMP-13, IL-8, PLK-1 while a VIC-labelled glyceraldehyde-3-phosphate dehydrogenase (GAPDH) probe was used as the endogenous control. Samples were amplified in triplicate and quantification of relative expression was performed using the estimation of quantitation cycle (Cq) method.

[2] = test system: TNF-α-ARE luciferase reporter in MDA-MB-231 cells; experiment: Post-transcriptional ARE luciferase reporter assay (kinase inhibitor library screen); assay type: cell-based
Description: Reporters were designed to be driven by the ribosomal protein subunit 30 (RPS30) promoter. The promoter was amplified using PCR with primers specific to the flanking region of the RPS30 promoter sequence. The gene structure of RPS30 was obtained from the Ribosomal Protein Database (http://ribosome.med.miyazaki-u.ac.jp). The forward and reverse primers included the restriction sites, EcoR V and SalI sites. Amplified DNA fragments were then resolved in 1.2%-1.5% agarose gel and the amplicon bands were excised, purified and cloned into the promoterless plasmid. TNF-α 3′-UTR and TNF-α ARE were used to study the role of AU-rich elements in the action of PKs inhibitors. The AU-rich sequence that comprised 250 bases from TNF-α 3′UTR (1200-1450 bp, NM_00059) was amplified by PCR using the forward primer 5′-[…]-3′ (SEQ ID NO:1) and the reverse primer 5′-[…]-3′ (SEQ ID NO:2). The TNF-α-ARE sequence was made by annealing two synthetic complementary oligonucleotides of 70 bases that correspond to TNF-α ARE. The control reporter was constructed to have the basic structure of post-transcriptional reporter except 3′UTR which lack the AU-rich element sequence like this of bovine growth hormone. Any ARE reiterations or variations can be used, with minimal sequence is AUUUA, preferably, WW(AUUUA)WW, where W=A or U. They can be also repeated as an overall, e.g., AUUUAUUA, anywhere from 0 to 10 repeats as example.
Selleckchem Kinase Inhibitor Library that includes a selection of 378 pharmacologically active inhibitors of a number of protein kinases was purchased from Selleckchem. (Houston, Tex., USA). This library is a collection of 378 kinase inhibitors some of which have been approved by the FDA. Each compound is provided as a pre-dissolved 10 mM dimethyl sulfoxide (DMSO) solution as a 96 well format tube (100 μL). The compounds were diluted by OPTI-MEM (Thermo Fisher Scientific, Waltham, Mass., USA) to a final concentration of 5 μM.
Post-transcriptional and control reporter constructs were transfected to MDA-MB-231 cells separately that were seeded in 96-well microplates at a density of 4×10^4 cells/well and incubated overnight. Using lipofectamine 2000 protocol (Invitrogen, Carlsbad, Calif., USA), the cells were transfected with 10 ng of either RPS30-luciferase-control 3′UTR or RPS30-luciferase-ARE 3′UTR reporter plasmids. After 24 h, the cells were treated with each member of protein kinase inhibitors kit for 24 h. Then, luciferase reaction was performed as prescribed by manufacture's protocol (Nano-Glo Luciferase, Promega, Madison, Wis., USA)/well. After 15 minutes, the reporters' activities were measured through the measurement of the chemiluminescence (FIG. 8) after treatment using a Zenith 3100 (Anthos Labtec, Eugendorf, Austria).
Data are presented as means±standard error of the mean (SEM). Two-sample Student's t-test was used to determine the differences between two data sets. One-way analysis of variance (ANOVA) was used to compare three or more data columns. Two-way analysis of variance was used to analyze two groups of data, each having two data columns. Analysis was performed using GraphPad Prism version 6.00 for Windows, (GraphPad Software, La Jolla Calif., USA). For high throughput screening (HTS) hit selection (protein kinase inhibitors), strictly standardized mean difference (SSMD) test was used. This statistical test measures the size of effect of each member in a group relative to the other members. It is the mean of each member divided by the standard deviation of the difference between two random values from different groups. Based on the value of SSMD, the effect of each member of the library was classified as strong (β≥5), moderate (1≤β<5), and weak (β<1). In this study, only drug with SSMD score more than or equal to 5 or less than or equal to −5, i.e. strong β, where selected in the primary screening. […]

CC[C@@H]1C(=O)N(C)c2cnc(Nc3ccc(C(=O)N[C@H]4CC[C@H](N5CCN(CC6CC6)CC5)CC4)cc3OC)nc2N1C(C)C [volasertib]
expression of all ARE-containing cancer genes (IL-8, SLC2A1, uPA, uPAR, CXCR4, MMP13, PDL1, HuR) [1]: significantly reduced
reduction of TNF-ARE luciferase reporter activity ([2]; primary screening, 5 μM): 40%
reduction in percent reporter activity in the secondary screening compared to the control reporter ([2]; secondary screening, ARE vs non-ARE control reporter): same reduction in percent reporter activity
